# Results: PMC10826971, “Evaluating protein cross-linking as a therapeutic strategy to stabilize SOD1 variants in a mouse model of familial ALS” (PLOS Biology, 2024)
# “And” between values parts separate entries of the source, which are not always exact repeats. Equal values may be shown once. “Also recorded” adds a separate entry of the source.
# How the values were obtained:
# [1] = system: NSC-34 cells expressing EGFP-G93A; assay: Determination of cells containing inclusions; assay type: cell-based, mouse; set-up: Inclusion Formation: unit not given here; details: for Inclusion Formation: G93A, 48 h, replicates
# Method: (§1) Transfected NSC-34 cells were plated out into 96-well plates and left overnight. […] Cells were then fixed using 4% (w/v) paraformaldehyde in 1×PBS for 20 min. Plates for imaging were then processed as previously described with some changes. Cells were imaged using a DMi8 epifluorescent microscope (Leica, Germany) fitted with a Mercury Arc Lamp, a 10× 0.25NA (CAT NO) air objective and an automated stage. A software-based autofocus strategy was utilized to focus on the GFP signal within cells, with a subsequent image being taken in the DAPI channel to view Hoescht-stained nuclei. Relative focus correction was applied between channels to offset emission wavelength effects to the focal plane. Following image acquisition, images were corrected for illumination variation via a background method and processed using a combination of FIJI [66], StarDist, CellProfiler, and CellProfiler Analyst as previously described.
# [2] = system: NSC-34 cells expressing EGFP-WT-SOD1; assay: Determination of cells containing inclusions; assay type: cell-based, mouse; set-up: Inclusion Formation: unit not given here; details: for Inclusion Formation: WT, 48 h, replicates
# Method: as §1
# [3] = system: NSC-34 cells expressing EGFP-G93A; assay: Relative cell viability of transfected NSC-34 cells; assay type: cell-based, mouse; details: for Viability %: G93A, 48 h, replicates
# Method: as §1
# (§2) Image set data taken from the previous inclusion formation assay were used to examine both relative cell viability and relative levels of SOD1-EGFP. To determine relative viability, we extracted the total number of transfected cells in each treatment group and normalized the values to the untreated group to determine the relative number of cells at assay endpoint.
# [4] = as above; assay type: cell-based, mouse; details: mouse, 48 h, replicates
# Method: as §1, §2
# [5] = system: NSC-34 cells expressing EGFP-WT-SOD1; assay: as above; assay type: cell-based, mouse; details: for Viability %: WT, 48 h, replicates
# Method: as §1, §2
# B6SJL G93A mice = assay: Survival study, hybrid B6SJL G93A mice, S-XL6 SC 20 then 50 mg/kg once a day Monday to Friday; assay type: in vivo, mouse
# Description: Two fALS lines were used to assess survival in genetic backgrounds with different disease severity. […] Dose and dose regimen were estimated from the blood PK/PD profile and BBB penetration described above. A subcutaneous (SC) route of administration was chosen because in our hands it results in more precise delivery. […] In both studies, mice were gender and littermate matched and non ALS-related deaths were excluded. We are currently developing the methods necessary for quantifying copy number and cannot rule out reduced SOD1 expression as having contributed to the survival benefit in treated B6 G93A mice.
# The first line was derived by crossing (over >10 generations) congenic fALS “B6 G93A mice” (B6.Cg-Tg(SOD1*G93A)1Gur/J, Stock No. 004435, The Jackson Laboratory, Bar Harbor, Maine, USA) with “YFP-16 mice” [50] (B6.Cg-Tg(Thy1-YFP)16Jrs/J, Stock No. 003709, The Jackson Laboratory, Bar Harbor, Maine, USA). This line maintains the C57BL/6J genetic background and expresses YFP in motor and sensory neurons to enable cellular-level molecular profiling in future studies. The second line is the standard “Hybrid B6SJL G93A mice” (B6SJL-Tg(SOD1*G93A)1Gur/J Stock No. 002726, The Jackson Laboratory, Bar Harbor, Maine, USA). Methods for survival studies have been described and followed the conventions for optimal trial design with fALS mice. Mice were tested for difference in: (1) disease onset (at least a 20% decrease in grip strength and open-field motor performance, which we expect to correlate with change in weight); (2) disease end-stage (disease score, e.g., loss of righting reflex); and (3) weight. The hybrid line was additionally tested for differences in forelimb and hindlimb grip strength.
# Maximum solubility = assay type: physicochemical; details: pH 7.4, aqueous buffer
# SOD1^G93A = SOD1^G93A (Homo sapiens, UniProt P00441, G94A); assay: Small-angle x-ray solution scattering (SAXS); set-up: made in house; host or cells: EGy118ΔSOD1 yeast, YEp351 expression vector; details: GNOM; untreated over 200 Å
# Method: SAXS data were collected at the G1 beamline at Cornell High Energy Synchrotron Source (CHESS). For each sample, 2 measurements were taken, one of the protein with buffer and one with buffer by itself. Solution scattering data were captured every second for 10 frames. The 10 frames of both buffer and protein were then averaged and the buffer was subtracted out to get the scattering for the protein. Samples were run in a 96-well plate and held at 4°C continuously. Data collection was in the scattering angle (q) range of 0.008 to 0.71 Å^-1 and processed using the software, RAW.
# Control sample contained 5% MeOH (final conc. 2.5%). Samples were then incubated at 37°C for 6 h to ensure complete cross-linking. After incubation, excess compound was buffer exchanged out of each sample using a 10 kDa MWCO ultrafiltration device, and 320 μL is diluted to 15 mL into HEPES buffer, spun down to approximately 500 μL, and resuspended in another 15 mL of HEPES buffer. After the final spin, samples were removed and concentrated in a smaller ultrafiltration device and brought to approximately 70 μL final volume (4.7 μm). Samples were flash frozen and stored at –80°C prior to analysis.
# The GNOM program was used to evaluate the pair distribution plot using an indirect Fourier transform. […]
# Sequence of SOD1^G93A (P00441 2-154 G94A limits assumed): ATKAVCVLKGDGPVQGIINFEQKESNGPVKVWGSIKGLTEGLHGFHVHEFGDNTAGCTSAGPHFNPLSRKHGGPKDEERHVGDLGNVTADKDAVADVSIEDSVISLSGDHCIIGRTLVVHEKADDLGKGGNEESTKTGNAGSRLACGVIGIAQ
smiles,measurement,setting,value
"[O-][S+]1CCCCS1 (stereo not shown) [S-XL6, 1,2-dithiane-1-oxide]",aggregation of EGFP-labeled G93A,[1],did not affect
same,Inclusion Formation,[1]; 5 uM,5.34 and 6.771 and 14.6572 and 11.1111 and 8.602
same,Inclusion Formation,[1]; 10 uM,6.731 and 9.113 and 13.3487 and 16.0367 and 12.7358
same,Inclusion Formation,[1]; 20 uM,8.219 and 11.7978 and 11.4911 and 10.411 and 12.1547
same,aggregation of EGFP-labeled wild-type SOD1,[2],increased cellular aggregation; also recorded: accelerate the aggregation
same,Inclusion Formation,[2]; 5 uM,0.4215 and 0.8811 and 2.367 and 0.4188 and 0.4044
same,Inclusion Formation,[2]; 10 uM,0.8155 and 1.677 and 1.595 and 4.094 and 2.381
same,Inclusion Formation,[2]; 20 uM,9.589 and 4.535 and 7.818 and 6.78 and 6.154
same,survival/viability of cells expressing EGFP-labeled G93A,[3],did not affect
same,Viability %,[3]; 5 uM,106.323% and 98.5697% and 106.015% and 108.827%
same,Viability %,[3]; 10 uM,107.355% and 99.404% and 108.897% and 105.562%
same,Viability %,[3]; 20 uM,94.1936% and 84.8629% and 91.604% and 88.2709%
same,"viability at 48 h, 5 µM","[4]; NSC-34 cells expressing EGFP-G93A, G93A, 5 uM",96%
same,"viability at 48 h, 10 µM","[4]; NSC-34 cells expressing EGFP-G93A, G93A, 10 uM",97.2%
same,"viability at 48 h, 20 µM","[4]; NSC-34 cells expressing EGFP-G93A, G93A",83%
same,"viability at 48 h, 20 µM","[4]; NSC-34 cells expressing EGFP-WT-SOD1, WT",109%
same,viability of cells expressing EGFP-labeled wild-type SOD1,[5],did not affect the viability
same,Viability %,[5]; 5 uM,118.019% and 98.8542% and 94.2887% and 103.364% and 96.0765%
same,Viability %,[5]; 10 uM,120.286% and 102.188% and 99.0654% and 102.243% and 98.2897%
same,Viability %,[5]; 20 uM,91.25% and 91.5888% and 93.8838% and 89.0342%
same,survival benefit,"B6SJL G93A mice; 50 mg/kg SC once a day, Monday to Friday, from day 70",no survival benefit; also recorded: No survival improvement
same,Age (wks),"B6SJL G93A mice; individual mice, Tx D (dosed), age at end-stage, found dead or sacrifice",17.7143 wks and 17.5714 wks and 17.8571 wks and 15.5714 wks and 18.7143 wks and 17.4286 wks and 16.1429 wks and 18 wks and 15.8571 wks and 17.1429 wks
same,Age,"B6SJL G93A mice; individual mice, Tx D (dosed), age at end-stage, found dead or sacrifice (131-day mice sac'd for tissue)",124 days and 123 days and 125 days and 109 days and 131 days and 122 days and 113 days and 126 days and 111 days and 120 days
same,solubility,Maximum solubility,360 mM
same,Dmax of SOD1^G93A with S-XL6,SOD1^G93A,approximately 79 Å
